Measured values as given in the NIST ThermoML archive (doi:10.1016/j.jct.2010.12.010).
“And” between values parts separate entries of the source, which are not always exact repeats. Equal values may be shown once. Numbers after ± are expanded uncertainties.

Settings: Liquid, Manometric method

CC(N)CN (centres undefined) [1,2-propanediamine]
Settings	vapor or sublimation pressure
284.01 K	0.5922 ± 0.079 kPa
293.15 K	1.085 ± 0.08 kPa
293.98 K	1.147 ± 0.08 kPa and 1.145 ± 0.08 kPa
303.15 K	2.004 ± 0.082 kPa
303.91 K	2.1 ± 0.083 kPa and 2.098 ± 0.083 kPa
313.15 K	3.535 ± 0.086 kPa
313.84 K	3.667 ± 0.086 kPa and 3.669 ± 0.086 kPa and 3.659 ± 0.086 kPa
323.15 K	5.985 ± 0.092 kPa
324.02 K	6.238 ± 0.093 kPa
333.15 K	9.764 ± 0.1 kPa
334 K	10.11 ± 0.11 kPa
343.15 K	15.41 ± 0.12 kPa
353.15 K	23.61 ± 0.14 kPa
363.15 K	35.21 ± 0.18 kPa
363.91 K	36.31 ± 0.17 kPa and 36.33 ± 0.17 kPa

NCCCN [1,3-propanediamine]
Settings	vapor or sublimation pressure
284.84 K	0.3186 ± 0.078 kPa and 0.3177 ± 0.078 kPa
293.15 K	0.5332 ± 0.079 kPa
294.82 K	0.5842 ± 0.079 kPa
303.15 K	0.9648 ± 0.08 kPa
313.15 K	1.688 ± 0.082 kPa
314.79 K	1.829 ± 0.082 kPa
323.15 K	2.863 ± 0.084 kPa
324.9 K	3.145 ± 0.085 kPa
333.15 K	4.72 ± 0.089 kPa
334.87 K	5.175 ± 0.09 kPa
343.15 K	7.58 ± 0.097 kPa
344.87 K	8.263 ± 0.098 kPa
353.15 K	11.88 ± 0.11 kPa
354.83 K	12.67 ± 0.11 kPa
363.15 K	18.22 ± 0.13 kPa
364.78 K	19.47 ± 0.13 kPa

NCCCCN [1,4-butanediamine]
Settings	vapor or sublimation pressure
284.92 K	0.1292 ± 0.078 kPa and 0.1296 ± 0.078 kPa
293.15 K	0.2012 ± 0.078 kPa
303.15 K	0.3324 ± 0.078 kPa
312.83 K	0.54 ± 0.079 kPa
313.15 K	0.5322 ± 0.079 kPa
323.15 K	0.8282 ± 0.079 kPa
332.86 K	1.276 ± 0.08 kPa
333.15 K	1.256 ± 0.08 kPa
342.85 K	1.703 ± 0.082 kPa
343.15 K	1.859 ± 0.082 kPa
352.87 K	2.691 ± 0.084 kPa and 2.692 ± 0.084 kPa
353.15 K	2.692 ± 0.084 kPa
362.86 K	3.797 ± 0.086 kPa and 3.813 ± 0.086 kPa and 3.794 ± 0.086 kPa
362.88 K	3.8 ± 0.086 kPa
362.9 K	3.807 ± 0.086 kPa
363.15 K	3.822 ± 0.087 kPa

NCCN [ethane-1,2-diamine]
Settings	vapor or sublimation pressure
285.5 K	0.659 ± 0.079 kPa
293.15 K	1.139 ± 0.08 kPa
303.15 K	2.179 ± 0.083 kPa
305.44 K	2.559 ± 0.084 kPa
313.15 K	3.937 ± 0.087 kPa
315.43 K	4.484 ± 0.089 kPa
315.48 K	4.485 ± 0.089 kPa
323.15 K	6.767 ± 0.094 kPa
326.2 K	7.827 ± 0.097 kPa
333.15 K	11.13 ± 0.11 kPa
335.88 K	12.41 ± 0.11 kPa
343.15 K	17.62 ± 0.12 kPa
345.7 K	19.74 ± 0.13 kPa and 19.73 ± 0.13 kPa and 19.72 ± 0.13 kPa
353.15 K	26.93 ± 0.15 kPa
355.67 K	29.85 ± 0.16 kPa and 29.83 ± 0.16 kPa
355.69 K	29.84 ± 0.16 kPa
363.15 K	39.94 ± 0.19 kPa
365.6 K	43.83 ± 0.19 kPa [middle of 4 runs]
365.63 K	43.82 ± 0.19 kPa and 43.83 ± 0.19 kPa and 43.81 ± 0.19 kPa

O [water]
Settings	vapor or sublimation pressure
285.15 K	1.362 ± 0.081 kPa
293.15 K	2.277 ± 0.083 kPa
295.14 K	2.562 ± 0.084 kPa
303.15 K	4.165 ± 0.087 kPa
313.15 K	7.284 ± 0.095 kPa
315.19 K	8.02 ± 0.097 kPa
323.15 K	12.23 ± 0.11 kPa
325.11 K	13.5 ± 0.11 kPa and 13.53 ± 0.11 kPa
325.13 K	13.5 ± 0.11 kPa and 13.52 ± 0.11 kPa and 13.53 ± 0.11 kPa
333.15 K	19.82 ± 0.12 kPa
335.12 K	21.77 ± 0.13 kPa
343.15 K	31.09 ± 0.15 kPa
345.05 K	33.84 ± 0.17 kPa
345.07 K	33.85 ± 0.17 kPa and 33.84 ± 0.17 kPa
353.15 K	47.34 ± 0.19 kPa
355.03 K	51.15 ± 0.21 kPa
363.15 K	70.22 ± 0.25 kPa
364.97 K	75.14 ± 0.27 kPa [middle of 5 runs]
